In patent USH810H, “Biologically active amides” (priority 1976, dated 1990):

Tested on: isolated mouse vas deferens
Format: cell-based
Experimental: The compounds were examined for their ability to inhibit neurally evoked contractions of the isolated mouse vas deferens preparation (method of Hughes et al, Brain Research, 88 (1975) 296, using pulses at 0.1 Hz).
The heights of the five contractions that immediately preceded the addition of the first "dose" of test compound were measured and their mean calculated. The resultant mean contraction associated with a particular bath concentration of test compound was calculated from the heights of the 6th, 7th, 8th, 9th and 10th contractions after the addition of the appropriate "dose" of test compound, i.e. the five contractions that immediately preceded the subsequent "dose" or washout.
Generally at least two cumulative dose response curves were constructed and a mean D50 calculated.

| Compound | Relative Potency (Morphine) (RP=antilog[logD50(MORPHINE) - logD50(TEST COMPOUND)], morphine = 1.0) | Reversal of the inhibition of the contractions by naloxone |
| --- | --- | --- |
| COC(=O)[C@H](CCSC)NC(=O)[C@H](Cc1ccccc1)NC(=O)CNC(=O)[C@@H](C)NC(=O)[C@@H](N)Cc1ccc(O)cc1 [5(b), H.Tyr. --D-Ala.Gly.Phe.Met.OMe] | 94 | – |
| CN1CC[C@]23c4c5ccc(O)c4O[C@H]2[C@@H](O)C=C[C@H]3[C@H]1C5 [Morphine] | – | Reversal of the inhibition of the contractions was effected |
